According to US12679878B2, “CRF2 receptor agonists and their use in therapy” (SANOFI, priority 2020, dated 2026):
Values after ≈ are worked out from the molar mass of the structure shown. Where two headings read alike, the source gives them in different places. Starred links: 1 amine or outer side, 2 acyl side, 3 side chain; linkers in the order of their positions; H or OH if unused. Non-standard residues stand in square brackets, D forms with d. Residues, ends and D or L forms follow the SMILES beside them. Groups on a side chain read outwards from the residue. *: point of attachment. C20 diacid = O=C(O)CCCCCCCCCCCCCCCCCCC(=O)*; C18 diacid = O=C(O)CCCCCCCCCCCCCCCCC(=O)*; γGlu = O=C(O)[C@H](CCC(=O)[*:2])N[*:1]; AEEA = NCCOCCOCC(=O)O; Aib = CC(C)(N)C(=O)O

What was measured:
human CRF2α receptor = target: T1, human CRF2α receptor (Homo sapiens, UniProt Q13324); assay: cAMP agonism at human CRF2 α receptor in TeloHEAC cells (Example 7); type: cell-based; settings: cAMP HTRF, TeloHEAC cells stably expressing human CRF2 α, 0% HSA; read-out: EC50 [nM], 0% HSA
T1 construct: expressed in transfected cells; host or cells: TeloHEAC
T1 sequence (Q13324 1-411): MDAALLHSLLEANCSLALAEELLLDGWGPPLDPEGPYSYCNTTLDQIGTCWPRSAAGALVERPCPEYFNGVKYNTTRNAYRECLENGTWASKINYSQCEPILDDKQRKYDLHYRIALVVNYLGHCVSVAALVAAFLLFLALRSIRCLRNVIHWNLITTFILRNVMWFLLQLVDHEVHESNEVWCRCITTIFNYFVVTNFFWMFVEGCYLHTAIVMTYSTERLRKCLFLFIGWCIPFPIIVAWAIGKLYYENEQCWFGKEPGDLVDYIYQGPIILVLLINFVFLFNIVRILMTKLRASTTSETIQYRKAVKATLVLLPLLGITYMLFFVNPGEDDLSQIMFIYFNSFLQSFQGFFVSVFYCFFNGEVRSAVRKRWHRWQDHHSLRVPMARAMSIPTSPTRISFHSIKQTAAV
Procedure, shortened: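 Cryopreserved cells are thawed, washed and resuspended in IBMX-containing (2 mM) HEPES-buffered HBSS with or without 0.1% HSA. Compound incubation runs 30 min at room temperature with 2000 cells per well, then cAMP is measured by time-resolved FRET. Potency is expressed as EC50, efficacy relative to urocortin 2 at 1000 nM.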

rat CRF2R α receptor = assay: cAMP agonism at rat CRF2R α receptor in A7R5 rat aortic smooth muscle cells (Example 8); type: cell-based; settings: cAMP HTRF, A7R5 rat aortic smooth muscle cell line, 0% HSA
Procedure, shortened: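 Thawed cryopreserved A7R5 cells in HBSS/20 mM HEPES (0 or 0.1% HSA) with 2 mM IBMX, 2000 cells/well, were exposed to compound for 30 min at room temperature. cAMP was read by HTRF (665/620 nm ratio) after 1 h with lysis reagents. Activity was normalised to 1000 nM urocortin 2 as 100%, and EC50 was taken as the concentration giving 50% of maximal activation.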

CRF1R receptor = target: T2, CRF1R receptor (Homo sapiens, UniProt P34998); assay: cAMP activity at anti-target CRF1R, CRF1R-overexpression CHO cell line (Example 9); type: cell-based; settings: for EC50: 0% HSA
T2 construct: host or cells: CHO-K1 clone 2
T2 sequence (P34998 24-415): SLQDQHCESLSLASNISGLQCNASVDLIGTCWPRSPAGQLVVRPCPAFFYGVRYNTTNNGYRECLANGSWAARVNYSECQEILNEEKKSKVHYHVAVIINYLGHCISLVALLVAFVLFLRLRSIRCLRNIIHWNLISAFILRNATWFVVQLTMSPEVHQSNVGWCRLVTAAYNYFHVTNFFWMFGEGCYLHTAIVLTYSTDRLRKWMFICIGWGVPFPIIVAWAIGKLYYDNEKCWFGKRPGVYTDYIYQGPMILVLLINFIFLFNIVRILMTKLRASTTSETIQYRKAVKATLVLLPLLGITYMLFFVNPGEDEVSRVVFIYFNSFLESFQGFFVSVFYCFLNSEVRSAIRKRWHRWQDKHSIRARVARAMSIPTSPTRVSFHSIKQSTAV
Procedure, shortened: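 cAMP accumulation was read by HTRF after 30 min at room temperature of compound treatment. Cells were cryopreserved CHO cells overexpressing CRF1R, plated at 2000/well in IBMX (2 mM)-containing HBSS/HEPES buffer with 0 or 0.1% HSA. Activity was normalized to 1000 nM UCN2 as 100%.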

[1] = Solubility in buffer systems by UPLC-UV (Example 13); type: physicochemical
Procedure, shortened: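 The supernatant was diluted 1:10 and quantified by UPLC-UV peak area against a reference standard curve, correcting for sequence-based extinction coefficients.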

[2] = CRF1R-overexpression CHO cell line
[3] = CRF1R-overexpression CHO cell line, read-out: Emax (%)
[4] = pH 4.5, Solubility in Buffer B [mg/ml]
[5] = pH 7.4, Solubility in Buffer C [mg/ml]

Row | SMILES | EC50 (human CRF2α receptor) | EC50 (rat CRF2R α receptor) | Emax (CRF1R receptor; CHO) | solubility at 1 h ([1]; Buffer B: 100 mM acetate buffer, pH 4.5, 2.7 mg/ml m-cresol, target 10 mg/ml, read-out: Solubility in Buffer B) | solubility at 1 h ([1]; Buffer C: 100 mM phosphate buffer, pH 7.4, target 10 mg/ml, read-out: Solubility in Buffer C) | EC50 (CRF1R receptor; [2]) | Emax (CRF1R receptor; [3]) | solubility at 1 h [1, 4] | solubility at 1 h [1, 5]
1 | CC[C@H](C)[C@H](NC(=O)[C@H](CCC(N)=O)NC(=O)[C@H](CCC(=O)O)NC(=O)[C@H](CC(C)C)NC(=O)[C@H](CC(C)C)NC(=O)[C@H](CCC(N)=O)NC(=O)[C@H](CCCCN)NC(=O)[C@H](CC(N)=O)NC(=O)[C@H](CCCCN)NC(=O)[C@H](CCC(=O)O)NC(=O)[C@H](C)NC(=O)[C@H](CCC(N)=O)NC(=O)[C@H](CCC(N)=O)NC(=O)[C@H](CCCNC(=N)N)NC(=O)[C@H](CCC(=O)O)NC(=O)[C@H](CCCCN)NC(=O)[C@H](CCCCN)NC(=O)[C@H](CCC(N)=O)NC(=O)[C@H](CCCCN)NC(=O)[C@H](CCC(N)=O)NC(=O)[C@H](CCC(N)=O)NC(=O)[C@H](CCCCN)NC(=O)[C@H](Cc1ccccc1)NC(=O)[C@H](CC(C)C)NC(=O)[C@@H](NC(=O)[C@H](CCC(N)=O)NC(=O)[C@H](CCCCNC(=O)COCCOCCNC(=O)COCCOCCNC(=O)CC[C@H](NC(=O)CCCCCCCCCCCCCCCCCCC(=O)O)C(=O)O)NC(=O)[C@@H](NC(=O)[C@H](CCCCN)NC(=O)[C@@H](NC(=O)[C@@H]1CCCN1C(=O)[C@@H](NC(=O)[C@H](CC(=O)O)NC(=O)[C@H](CC(C)C)NC(=O)[C@H](CO)NC(=O)[C@H](CC(C)C)NC(=O)[C@@H](NC(=O)[C@@H](N)Cc1ccccc1)[C@@H](C)O)C(C)C)[C@@H](C)O)[C@@H](C)CC)[C@@H](C)CC)C(N)=O [compound 58] (H-FTLSLDVPTKIK([AEEA-AEEA-γGlu-C20 diacid])QILFKQQKQKKERQQAEKNKQLLEQI-NH2; N-terminus assumed) | 0.28 nM | 0.72 nM | 9.12% | > 9500 µg/mL | > 9400 µg/mL | – | – | – | –
2 | CC[C@H](C)[C@H](NC(=O)[C@H](CCC(N)=O)NC(=O)[C@H](CCCCNC(=O)COCCOCCNC(=O)COCCOCCNC(=O)CC[C@H](NC(=O)CCCCCCCCCCCCCCCCCCC(=O)O)C(=O)O)NC(=O)[C@@H](NC(=O)[C@H](CCCCN)NC(=O)[C@@H](NC(=O)[C@@H]1CCCN1C(=O)[C@@H](NC(=O)[C@H](CC(=O)O)NC(=O)[C@H](CC(C)C)NC(=O)[C@H](CO)NC(=O)[C@H](CC(C)C)NC(=O)[C@@H](NC(=O)[C@@H](N)Cc1ccccc1)[C@@H](C)O)C(C)C)[C@@H](C)O)[C@@H](C)CC)C(=O)N[C@@H](CC(C)C)C(=O)N[C@@H](CC(C)C)C(=O)N[C@@H](CCCCN)C(=O)N[C@@H](CCC(N)=O)C(=O)N[C@@H](CCC(N)=O)C(=O)N[C@@H](CCCCN)C(=O)N[C@@H](CCC(N)=O)C(=O)N[C@@H](CCCCN)C(=O)N[C@@H](CCCCN)C(=O)N[C@@H](CCC(=O)O)C(=O)N[C@@H](CCCNC(=N)N)C(=O)N[C@@H](CCC(N)=O)C(=O)N[C@@H](CCC(N)=O)C(=O)N[C@@H](C)C(=O)N[C@@H](CCC(=O)O)C(=O)N[C@H](C(=O)N[C@@H](CC(N)=O)C(=O)N[C@@H](CCCCN)C(=O)N[C@@H](CCC(N)=O)C(=O)N[C@@H](CC(C)C)C(=O)N[C@@H](CC(C)C)C(=O)N[C@@H](CCC(=O)O)C(=O)N[C@@H](CCCNC(=N)N)C(=O)N[C@H](C(N)=O)C(C)C)[C@@H](C)O [compound 61] (H-FTLSLDVPTKIK([AEEA-AEEA-γGlu-C20 diacid])QILLKQQKQKKERQQAETNKQLLERV-NH2) | 0.38 nM | 0.94 nM | – | – | – | > 1000 nM | 3.31% | > 10600 µg/mL | > 9500 µg/mL
3 | CC[C@H](C)[C@H](N)C(=O)N[C@H](C(=O)N[C@@H](CC(C)C)C(=O)N[C@@H](CO)C(=O)N[C@@H](CC(C)C)C(=O)N[C@@H](CC(=O)O)C(=O)N[C@H](C(=O)N1CCC[C@H]1C(=O)N[C@H](C(=O)N[C@@H](CCCCN)C(=O)N[C@@H](CC(C)C)C(=O)N[C@@H](CCCCNC(=O)COCCOCCNC(=O)COCCOCCNC(=O)CC[C@H](NC(=O)CCCCCCCCCCCCCCCCC(=O)O)C(=O)O)C(=O)N[C@@H](CCC(N)=O)C(=O)N[C@H](C(=O)N[C@@H](CC(C)C)C(=O)N[C@@H](CC(C)C)C(=O)N[C@@H](CCC(=O)O)C(=O)N[C@@H](CCC(N)=O)C(=O)N[C@@H](CCC(=O)O)C(=O)N[C@@H](CCCCN)C(=O)N[C@@H](CCC(N)=O)C(=O)N[C@@H](CCCCN)C(=O)N[C@@H](CCCCN)C(=O)N[C@@H](CCC(N)=O)C(=O)N[C@@H](CCCNC(=N)N)C(=O)N[C@@H](CCC(=O)O)C(=O)N[C@@H](CCC(N)=O)C(=O)N[C@@H](C)C(=O)N[C@@H](CCC(=O)O)C(=O)N[C@H](C(=O)N[C@@H](CC(N)=O)C(=O)N[C@@H](CCCCN)C(=O)N[C@@H](CCC(N)=O)C(=O)N[C@H](C(=O)N[C@@H](CC(C)C)C(=O)N[C@@H](C)C(=O)N[C@@H](CCC(N)=O)C(=O)N[C@H](C(N)=O)C(C)C)[C@@H](C)CC)[C@@H](C)O)[C@@H](C)CC)[C@@H](C)CC)C(C)C)C(C)C [compound 67] (H-IVLSLDVPIKLK([AEEA-AEEA-γGlu-C18 diacid])QILLEQEKQKKQREQAETNKQILAQV-NH2; N-terminus assumed) | 0.57 nM | 0.66 nM | – | – | – | > 1000 nM | 9.18% | 6800 µg/mL (≈ 1320 µM) | 7500 µg/mL (≈ 1450 µM)
4 | CC[C@H](C)[C@H](N)C(=O)N[C@H](C(=O)N[C@@H](CC(C)C)C(=O)N[C@@H](CO)C(=O)N[C@@H](CC(C)C)C(=O)N[C@@H](CC(=O)O)C(=O)N[C@H](C(=O)N1CCC[C@H]1C(=O)N[C@H](C(=O)N[C@@H](CCCCN)C(=O)N[C@@H](CC(C)C)C(=O)N[C@@H](CCCCNC(=O)COCCOCCNC(=O)COCCOCCNC(=O)CC[C@H](NC(=O)CCCCCCCCCCCCCCCCC(=O)O)C(=O)O)C(=O)N[C@@H](CCC(N)=O)C(=O)N[C@H](C(=O)N[C@@H](CC(C)C)C(=O)N[C@@H](CC(C)C)C(=O)N[C@@H](CCC(=O)O)C(=O)N[C@@H](CCC(N)=O)C(=O)N[C@@H](CCC(=O)O)C(=O)N[C@@H](CCCCN)C(=O)N[C@@H](CCC(N)=O)C(=O)N[C@@H](CCCCN)C(=O)NC(C)(C)C(=O)N[C@@H](CCC(N)=O)C(=O)N[C@@H](CCCNC(=N)N)C(=O)N[C@@H](CCC(=O)O)C(=O)N[C@@H](CCC(N)=O)C(=O)N[C@@H](C)C(=O)N[C@@H](CCC(=O)O)C(=O)N[C@H](C(=O)N[C@@H](CC(N)=O)C(=O)N[C@@H](CCCCN)C(=O)N[C@@H](CCC(N)=O)C(=O)N[C@H](C(=O)N[C@@H](CC(C)C)C(=O)N[C@@H](C)C(=O)N[C@@H](CCC(N)=O)C(=O)N[C@H](C(N)=O)C(C)C)[C@@H](C)CC)[C@@H](C)O)[C@@H](C)CC)[C@@H](C)CC)C(C)C)C(C)C [compound 79] (H-IVLSLDVPIKLK([AEEA-AEEA-γGlu-C18 diacid])QILLEQEKQK[Aib]QREQAETNKQILAQV-NH2; N-terminus assumed) | 0.46 nM | 3.99 nM | – | – | – | > 1000 nM | 8.74% | 18900 µg/mL (≈ 3700 µM) | > 8800 µg/mL
